The SangsterLogP compilation
Values belong to the compound of their own block, whether it stands above or below them.

Experiments:
[1] = method code SF-AS, from DOI: 10.1002/ardp.19853180604, PMID: 4026543; details: pH 7.4
[2] = method code SF-AS, from DOI: 10.3109/03639048709068705
[3] = method code SF-HPLC, from Thijssen, W. (1981). The relationship between Log P, Rm, log k' and the constants pi and f: a study on penicillins. Eur J Med Chem, 16(5)449-452.
[4] = not given; remark: listed apart in the source
[5] = not given; remark: listed apart in the source
[6] = method code SF-HPLC, from DOI: 10.1016/j.ejps.2012.04.024, PMID: 22609526
[7] = not given; remark: listed apart in the source
[8] = not given; remark: listed apart in the source
[9] = not given; remark: listed apart in the source
[10] = method code SF-AS, from PMID: 872227; details: pH 7.2
[11] = not given; remark: listed apart in the source
[12] = from Jayashree, Bs.; Sahu, A.; MM, S.; Venugopala, K. (2006). Synthesis, characterization and determination of partition coefficient of some triazolo thiadiazinyl chlorocoumarin derivatives for their …; details: pH 7.4
[13] = not given; remark: listed apart in the source

SMILES: Cc1nc2ccccc2c(=O)n1N=C1SCC(=O)N1c1ccc(Br)cc1
logD [1]: -1.26

SMILES: C(=C\c1ccc(/C=C/c2ccncc2)cc1)/c1ccncc1
logP: 3.93

SMILES: CCCCCC(=O)OC(CNC(C)C)COc1cccc2ccccc12 (stereo not given)
logP [2]: 6.85

SMILES: Cc1onc(-c2ccccc2Cl)c1C(=O)NC1C(=O)N2C1S(=O)C(C)(C)C2C(=O)O (stereo not given)
logP [3]: 2

SMILES: CC(=O)N(CCO)c1c(I)c(C(=O)NC(CO)CO)c(I)c(C(=O)NC(CO)CO)c1I
logP [4]: -2.49

SMILES: CCN(CC)C(=O)C(C#N)=Cc1cc(OC(C)=O)c(OC(C)=O)c([N+](=O)[O-])c1
logP [5]: 1.23

SMILES: COc1cc(OC)c2c(=O)c(OC)c(-c3ccc(OC)c(OC)c3)oc2c1
logP [6]: 3.85

SMILES: COc1cc(C=Cc2cccnc2)ccc1C=Cc1cccnc1
logP: 4.32

SMILES: COC(=O)C1=C(C)NC(C)=C(C(=O)OC(C)C)[C@H]1c1cccc2nonc12
logP [8]: 3.75

SMILES: CCCC(=O)Oc1cc(C=C(C#N)C(=O)N(CC)CC)cc([N+](=O)[O-])c1OC(=O)CCC
logP [5]: 3.15

SMILES: Cc1cccc2c1Sc1ccccc1C2NC(=O)CCN(C)C (stereo not given)
logP [9]: 3.06

SMILES: CCN(CC)CCC(=O)NC1c2ccccc2Oc2c(C)cccc21 (stereo not given)
logP [9]: 3.55

SMILES: O=[N+]([O-])c1ccc(OCC(O)CNCC(O)COc2ccccc2)cc1 (stereo not given)
logP [11]: 2.62

SMILES: O=c1oc2ccc(Cl)cc2cc1C1=Nn2c(nnc2-c2cccc(Br)c2)SC1
logD [12]: 1.53

SMILES: CCCCCOc1ccc(NC(=O)OCCN2CCOCC2)c(C)c1
logD [10]: 3.38

SMILES: Cc1ccccc1OCC(O)CNCC(O)COc1ccccc1C (stereo not given)
logP [11]: 3.67

SMILES: CC(=O)OC(CNC(C)C)COc1cccc2ccccc12 (stereo not given)
logP [13]: 4.34

SMILES: CC(C)NCC(COc1cccc2ccccc12)OC(=O)C(C)(C)C (stereo not given)
logP [2]: 6.44

SMILES: Cc1onc(-c2c(Cl)ccc(O)c2F)c1C(=O)NC1SC2N(C1=O)C(C(=O)O)C2(C)C (stereo not given)
logP [3]: 2.23

SMILES: O=C(O)[C@H]1O[C@@H](Oc2c(-c3ccc(O)c(O)c3)oc3cc(O)cc(O)c3c2=O)[C@H](O)[C@@H](O)[C@@H]1O
logP [6]: 0.79

SMILES: Cc1cn(C2CC(N=[N+]=[N-])C(COC(=O)C(=O)N3CCCC3C(=O)O)O2)c(=O)[nH]c1=O (stereo not given)
logP [7]: 0.16

SMILES: CC=CC(=O)OC(CNC(C)C)COc1cccc2ccccc12 (stereo not given)
logP [13]: 3.78

SMILES: CC(C)NCC(COc1cccc2ccccc12)OC(=O)c1ccc([N+](=O)[O-])cc1 (stereo not given)
logP [13]: 5.97

SMILES: CCCCCCOc1ccc(NC(=O)OCCN2CCOCC2)c(C)c1
logD [10]: 3.9

SMILES: O=c1oc2ccc(Cl)cc2cc1C1=Nn2c(nnc2-c2ccccc2O)SC1
logD [12]: 0.36

The next lines start with the values.

logD [1]: -1.06
SMILES: Cc1nc2ccccc2c(=O)n1N=C1SCC(=O)N1c1ccccc1

logP: 3.73
SMILES: C(=Cc1cccnc1)c1ccc(C=Cc2cccnc2)cc1

logP [7]: 1.12
SMILES: Cc1cn(C2CC(N=[N+]=[N-])C(COC(=O)C(=O)NC(CC(C)C)C(=O)O)O2)c(=O)[nH]c1=O (stereo not given)

logP [4]: -3.08
SMILES: CC(=O)N(CC(O)CO)c1c(I)c(C(=O)NCC(O)CO)c(I)c(C(=O)NCC(O)CO)c1I (stereo not given)

logD [1]: -1.6
SMILES: Cc1nc2ccccc2c(=O)n1N=C1SCC(=O)N1c1ccc(Cl)cc1

logP [5]: 3.44
SMILES: CCN(CC)C(=O)C(C#N)=Cc1cc(OC(=O)c2ccccc2)c(OC(=O)c2ccccc2)c([N+](=O)[O-])c1

logP [3]: 2.57
SMILES: Cc1onc(-c2c(Cl)cccc2Cl)c1C(=O)NC1C(=O)N2C1S(=O)C(C)(C)C2C(=O)O (stereo not given)

logD [10]: 2.82
SMILES: CCCCOc1ccc(NC(=O)OCCN2CCOCC2)c(C)c1

logP [11]: 3
SMILES: COc1ccc(CCNCC(O)COc2cccc(C)c2)cc1OC (stereo not given)

logD [12]: 1.4
SMILES: O=c1oc2ccc(Cl)cc2cc1C1=Nn2c(COc3ccc(Cl)cc3Cl)nnc2SC1

logP [9]: 4.1
SMILES: CCN(CC)CCC(=O)NC1c2ccccc2Sc2c(C)cccc21 (stereo not given)

logP [6]: -0.97
SMILES: O=C(OC[C@H]1O[C@@H](Oc2c(-c3ccc(O)c(O)c3)oc3cc(O)cc(O)c3c2=O)[C@H](O)[C@@H](O)[C@H]1O)c1cc(O)c(O)c(O)c1

logP [7]: 0.68
SMILES: Cc1cn(C2CC(N=[N+]=[N-])C(COC(=O)C(=O)NC(C(=O)O)C(C)C)O2)c(=O)[nH]c1=O (stereo not given)

logP [2]: 4.99
SMILES: CCC(=O)OC(CNC(C)C)COc1cccc2ccccc12 (stereo not given)

logP [4]: -2.64
SMILES: CC(=O)N(C[C@@H](O)CO)c1c(I)c(C(=O)NC(CO)CO)c(I)c(N(C(C)=O)[C@@H](O)CO)c1I
